Measurements as given in ChEMBL document CHEMBL1201862, “PubChem BioAssay data set” (2004).
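Growth conditions: 96-well plates. Treatment: test compound, 48 hours, 5 concentrations. Analysis: linear interpolation between bracketing concentrations; unreached endpoints set to highest concentration. The concentration for 50% growth inhibition is given as GI50.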 Activity calls are given as the source filed them. Rule as the data show it: active = GI50 up to about 1.1 µM and inactive = higher.

Assays:
Assay in all cases: growth of human tumour cells (NCI), 48 h
[1] = system: 786-0
[2] = system: A498
[3] = system: A549
[4] = system: ACHN
[5] = system: BT-549
[6] = system: CAKI-1
[7] = system: CCRF-CEM
[8] = system: COLO 205
[9] = system: DU-145
[10] = system: EKVX
[11] = system: HCC 2998
[12] = system: HCT-116
[13] = system: HCT-15
[14] = system: HL-60
[15] = system: HOP-62
[16] = system: HOP-92
[17] = system: HT-29
[18] = system: Hs-578T
[19] = system: IGROV-1
[20] = system: K562
[21] = system: KM12
[22] = system: LOX IMVI
[23] = system: M14
[24] = system: MCF7
[25] = system: MDA-MB-231
[26] = system: MDA-MB-435
[27] = system: MDA-N
[28] = system: MOLT-4
[29] = system: NCI-H226
[30] = system: NCI-H23
[31] = system: NCI-H460
[32] = system: NCI-H522
[33] = system: NCI/ADR-RES
[34] = system: OVCAR-3
[35] = system: OVCAR-4
[36] = system: OVCAR-5
[37] = system: OVCAR-8
[38] = system: PC-3
[39] = system: RPMI-8226
[40] = system: RXF 393
[41] = system: SF-268
[42] = system: SF-295
[43] = system: SF-539
[44] = system: SK-MEL-28
[45] = system: SK-MEL-2
[46] = system: SK-MEL-5
[47] = system: SK-OV-3
[48] = system: SN12C
[49] = system: SNB-19
[50] = system: SNB-75
[51] = system: SR
[52] = system: SW-620
[53] = system: T47D
[54] = system: TK-10
[55] = system: U-251
[56] = system: UACC-257
[57] = system: UACC-62
[58] = system: UO-31
[59] = system: Malme-3M

For `O=C1Nc2ccccc2/C1=C/c1ccccc1`, the GI50 [1] was 13.8 µM (inactive), the GI50 [2] was 13.5 µM (inactive) and the GI50 [3] was 25.2 µM (inactive). For the same compound, the GI50 [4] was 30.4 µM (inactive), the GI50 [5] was 16.4 µM (inactive) and the GI50 [6] was 29.2 µM (inactive). The GI50 [7] was 17.8 µM (inactive), the GI50 [8] was 16.8 µM (inactive) and the GI50 [9] was 13.8 µM (inactive). For the same compound, the GI50 [10] was 13.8 µM (inactive), the GI50 [11] was 15.8 µM (inactive) and the GI50 [12] was 14 µM (inactive). The GI50 [13] was 14 µM, the GI50 [14] was 14.6 µM (inactive) and the GI50 [15] was 18 µM (inactive). For the same compound, the GI50 [16] was 11 µM (inactive), the GI50 [17] was 22.6 µM (inactive) and the GI50 [18] was 24.1 µM (inactive). The GI50 [19] was 11.7 µM (inactive), the GI50 [20] was 27.7 µM (inactive) and the GI50 [21] was 15.3 µM (inactive). The GI50 [22] was 13.2 µM (inactive), the GI50 [23] was 16.7 µM (inactive) and the GI50 [24] was 3.36 µM (inactive). The GI50 [25] was 17.8 µM (inactive), the GI50 [26] was 15.8 µM (inactive) and the GI50 [27] was 17.7 µM (inactive). The GI50 [28] was 15.6 µM (inactive), the GI50 [29] was 17.1 µM (inactive) and the GI50 [30] was 18.1 µM (inactive). The GI50 [31] was 15.5 µM (inactive), the GI50 [32] was 15.8 µM (inactive) and the GI50 [33] was 22.8 µM (inactive). The GI50 [34] was 16.7 µM (inactive), the GI50 [35] was 23.6 µM (inactive) and the GI50 [36] was 18.5 µM (inactive). The GI50 [37] was 18.8 µM (inactive), the GI50 [38] was 14.6 µM (inactive) and the GI50 [39] was 18.2 µM (inactive). The GI50 [40] was 9.27 µM (inactive), the GI50 [41] was 15.6 µM (inactive) and the GI50 [42] was 17.5 µM (inactive). The GI50 [43] was 15.4 µM (inactive), the GI50 [44] was 20.8 µM (inactive) and the GI50 [45] was 14.3 µM (inactive). For the same compound, the GI50 [46] was 13.3 µM (inactive), the GI50 [47] was 28.8 µM (inactive) and the GI50 [48] was 14.1 µM (inactive). The GI50 [49] was 14.5 µM (inactive), the GI50 [50] was 12.9 µM (inactive) and the GI50 [51] was 14.4 µM (inactive). For the same compound, the GI50 [52] was 25.2 µM (inactive), the GI50 [53] was 12.3 µM (inactive) and the GI50 [54] was 21.7 µM (inactive). The GI50 [55] was 15 µM (inactive), the GI50 [56] was 15 µM (inactive) and the GI50 [57] was 13.9 µM (inactive). The GI50 [58] was 12.6 µM (inactive).
`CC[C@@H]1/C=C/C=C/C[C@H](C)[C@@H](O)[C@@H](C)C(=O)[C@H](C)[C@@H](O)[C@H](C)C(=O)[C@H](C)[C@@H](O)[C@H](C)/C=C/C(=O)O[C@H]2[C@@H](C)[C@@H](CC1)O[C@@]1(CC[C@@H](C)[C@@H](CC(C)O)O1)[C@@H]2C` (stereo not given in full) was tested, and the GI50 [1] was 5.9 µM (inactive), the GI50 [2] was 0.0989 µM (active) and the GI50 [3] was 0.012 µM (active). For the same compound, the GI50 [4] was 0.17 µM (active), the GI50 [5] was 4.32 µM (inactive) and the GI50 [6] was 4.15 µM (inactive). For the same compound, the GI50 [7] was 1.75 µM (inactive), the GI50 [8] was 0.00408 µM (active) and the GI50 [9] was 3.37 µM (inactive). The GI50 [10] was < 0.0025 µM (active), the GI50 [11] was 1.78 µM (inactive) and the GI50 [12] was 2.58 µM (inactive). The GI50 [13] was 4.06 µM, the GI50 [14] was 0.00847 µM (active) and the GI50 [15] was 4.38 µM (inactive). For the same compound, the GI50 [16] was 3.25 µM (inactive), the GI50 [17] was 2.94 µM (inactive) and the GI50 [18] was 6.03 µM (inactive). The GI50 [19] was 4.48 µM (inactive), the GI50 [20] was 0.00504 µM (active) and the GI50 [21] was 3.41 µM (inactive). The GI50 [22] was 5.83 µM (inactive), the GI50 [23] was 2.47 µM (inactive) and the GI50 [24] was 0.00269 µM (active). The GI50 [25] was 4.35 µM (inactive), the GI50 [26] was 3.11 µM (inactive) and the GI50 [27] was 3.06 µM (inactive). For the same compound, the GI50 [28] was 0.815 µM (active), the GI50 [59] was 6.34 µM (inactive) and the GI50 [30] was 0.00361 µM (active). The GI50 [31] was 2.17 µM (inactive), the GI50 [32] was 0.0188 µM (active) and the GI50 [33] was 0.596 µM (active). The GI50 [34] was 2.62 µM (inactive), the GI50 [35] was 0.057 µM (active) and the GI50 [36] was 3.63 µM (inactive). For the same compound, the GI50 [37] was 0.00464 µM (active), the GI50 [38] was 0.00678 µM (active) and the GI50 [39] was 0.057 µM (active). For the same compound, the GI50 [40] was 3.07 µM (inactive), the GI50 [41] was 6.98 µM (inactive) and the GI50 [42] was < 0.0025 µM (active). The GI50 [43] was 6.46 µM (inactive), the GI50 [44] was 10.6 µM (inactive) and the GI50 [45] was 4.58 µM (inactive). The GI50 [46] was < 0.0025 µM (active), the GI50 [47] was 7.76 µM (inactive) and the GI50 [48] was 1.94 µM (inactive). For the same compound, the GI50 [49] was 0.00491 µM (active), the GI50 [50] was 0.253 µM (active) and the GI50 [51] was 3.01 µM (inactive). For the same compound, the GI50 [52] was 5.32 µM (inactive), the GI50 [53] was < 0.0025 µM (active) and the GI50 [54] was 0.528 µM (active). The GI50 [55] was 0.00361 µM (active), the GI50 [56] was < 0.0025 µM (active) and the GI50 [57] was 3.32 µM (inactive).
